Data published in US20210188817A1, “OPHTHALMIC COMPOSITIONS AND METHODS FOR THE TREATMENT OF EYE DISORDERS AND SKIN DISEASES” (Cellix Bio Private Limited, priority 2018, published 2021).

Columns and labels:
[1] = test system: P. acnes, Staphylococcus aureus (S. aureus), and Staphylococcus epidermidis (S. epidermidis); settings: twofold serial dilutions 0.24 to 500 μg ml-1, 72, 24, 48 hours for P. acnes, OD600
Description: (§1) ANTI-MICROBIAL PROPERTIES OF CLX-SYN-G162B-C02 AND BRIMONIDINE MALEATE: To compare dose-response effects of CLX-SYN-G162B-C02 [brimonidine eicosapentaenoate salt], compound of present invention and brimonidine maleate [referred as brimonidine], comparative example on the growth of bacteria that are present in the skin flora, P. acnes, Staphylococcus aureus (S. aureus), and Staphylococcus epidermidis (S. epidermidis) were co-cultured with either agent at various concentrations for 72, 24, and 48 hours, respectively.
(§2) Bacterial growth was evaluated by measuring absorbance at 600 nm. The length of cultivation period was determined based on the growth speed of the bacteria. Both, CLX-SYN-G162B-C02 and brimonidine were tested at concentrations of twofold serial dilutions from 0.24 to 500 μg ml-1.

P. acnes = settings: 72 hours co-culture; compared with S. aureus and S. epidermidis
Description: as §1, §2

[2] = Procedure: SINGLE DOSE OCULAR PHARMACOKINETIC STUDY OF CLX-162 FORMULATION IN MALE NEW ZEALAND WHITE RABBITS: The purpose of this study was to determine the ocular pharmacokinetics of CLX-162, Brimonidine R-(+)-lipoate when administered to male New Zealand white rabbits by topical ocular route.
Aqueous humor samples were collected at pre-determined time points (0.25, 0.5, 1, 2, 4, 8 and 12 h from both eyes) and stored at −70° C. until analysis. Brimonidine was quantified in aqueous humor samples of New Zealand White rabbits, using a specific sensitive LC-MS/MS fit for purpose analytical method.
Brimonidine Pharmacokinetic parameters in aqueous humor of New Zealand white rabbits: […]

[3] = brimonidine in aqueous humor, 50 μL topical ocular, each eye, New Zealand white rabbits

Brimonidine Eicosapentaenoate [CLX-SYN-G162B-C02]
minimal inhibitory concentration (MIC) [1]: had shown to prevent bacterial growth | half maximal effective concentration on P. acnes growth (P. acnes): lowest among the bacteria tested

Brc1c(NC2=NCCN2)ccc2nccnc12.O=C(O)CCCC[C@@H]1CCSS1 [CLX-162, Brimonidine R-(+)-lipoate]
AUC profile ([2]; aqueous humor, ocular administration, comparator not stated): better AUC profile | AUCinf [2, 3]: 1953 ng·h/mL | AUClast [2, 3]: 1875 ng·h/mL | Cmax [2, 3]: 1073 ng/mL | MRTlast [2, 3]: 75.6 min | T1/2 [2, 3]: 49.2 min | Tmax [2, 3]: 30 min | Time to maximal aqueous humor concentration ([2]; topical ocular): ≤ 0.5 h | Brimonidine levels detectable in the aqueous humor, time post dose ([2]; topical ocular, sampling 0.25-12 h): up to 4 h

brimonidine maleate [reference compound]
minimal inhibitory concentration (MIC) [1]: no MIC
